# Results taken from patent US20050107441A1, “Compositions and methods for altering glucose production” (priority 2001, published 2005).
# What was measured:
# PEPCK = assay: Insulin treatment of ZDF rats, real-time quantitative PCR of liver RNA: PEPCK mRNA; type: in vivo, Zucker diabetic fatty (ZDF) rats; settings: pooled RNA samples, 6 hours after subcutaneous insulin vs vehicle (0.9% normal saline)
# Description: (§1) In these experiments, ZDF rats were treated for 6 hours with insulin or vehicle (0.9% normal saline) alone. At the end of this period, the rats were killed and RNA prepared from their livers. […] Conversely, PEPCK levels decreased by approximately 2 fold in response to insulin.
# (§2) All procedures performed were in compliance with the Animal Welfare Act, USDA regulations and approved by the GlaxoSmithKline Institutional Animal Care and Use Committee. Animals were housed at 72 F and 50% relative humidity with a 12 hour light and dark cycle, and fed chow diet (Formulab Diet 5008, PMI Feeds Inc., Richmond, Ind.). Insulin-treated animals received a mixture of HUMULIN®N and HUMULIN®R (Lilly, Indianapolis, Ind.) by subcutaneous injection and were sacrificed six hours later. RTQ-PCR was performed using an ABI PRISM 7700 Sequence Detection System instrument and software (PE Applied Biosystems, Inc., Foster City, Calif.) in accordance with procedures described by Way et al. (Endocrinology 2001 142: 1269-77). Primers used include:Rat PEPCK forward: TGAGGAAGTTTGTGGAAG (SEQ ID NO:1) • Rat PEPCK reverse: GCCGTCGCAGATGTGAAT (SEQ ID NO:2) • Rat PEPCK probe: TGCCCAGCTGTGCCAGCC (SEQ ID NO:3) • Rat SHP forward: TGGTACCCAGCTAGCCAAG (SEQ ID NO:4) • Rat SHP reverse: TGTTCTTGAGGGTGGAAGC (SEQ ID NO: 5) • Rat SHP probe: CGCCTGGCCCGAATCCTCC (SEQ ID NO:6) [drawing]
# SHP mRNA = assay: Insulin treatment of ZDF rats, real-time quantitative PCR of liver RNA: SHP mRNA; type: in vivo, Zucker diabetic fatty (ZDF) rats; settings: pooled RNA samples, 6 hours after subcutaneous insulin vs vehicle (0.9% normal saline)
# Description: as §1, §2
substance,measurement,setting,value
insulin,PEPCK levels decreased in response to insulin,PEPCK,approximately 2 fold
same,SHP mRNA levels increased in response to insulin,SHP mRNA,approximately 17 fold
